Data from patent publication US20260152533A1, “COMBINATION INHIBITORS FOR TREATING FIBROSIS” (Memorial Sloan-Kettering Cancer Center, priority 2021, published 2026).

Legend:
[1] = system: NIH-3T3 cells; assay: Western blot of NIH-3T3 cells (collagen I, GCN2, ATF4, PC); type: cell-based, mouse
Source text: PSCs were isolated from C57BL/6 mice by differential centrifugation as previously described^49 and their mesenchymal origin was validated by analyzing the expression of various mesenchymal and epithelial markers. MFBs were isolated from FVB/N mice by differential centrifugation as previously described^50. DB7 mouse breast cancer cells were obtained from Alexander Borowsky (University of California Davis Comprehensive Cancer Center, Sacramento, CA, USA) through an MTA to Ohio State University (OSU). KPC (Kras^LSL-G12D; Trp53^LSL-R172H; Pdx1-Cre) mouse PDAC cells were a gift from Scott Lowe (Memorial Sloan Kettering Cancer Center. (MSKCC)). All cells were cultured at 37° C. in 5% carbon dioxide (CO2) and 20% oxygen (O2) and were maintained in Dulbecco's Modified Eagles medium (DMEM) (25 mM D-glucose, 2 mM L-glutamine) supplemented with 10% fetal bovine serum (FBS) (Gemini), 100 units/ml penicillin and 100 μg/ml streptomycin. Primary PSC and MFB cells were kept in culture for no more than ten passages. Experiments with iCAFs and myCAFs were performed as previously described^29. In brief, qPSCs were generated by culturing PSCs in a dome of GFR Matrigel (Corning) in DMEM; iCAFs were generated by culturing PSCs in a dome of GFR Matrigel in DMEM conditioned by KPC cells for 48 h; myCAFs were generated by monolayer culture of PSCs. Differentiation was validated by analyzing the expression of iCAF/myCAF markers^29. For experiments with different glutamine concentrations, cells were seeded in regular DMEM and the medium was changed 5-6 hours later or the following day to glucose and glutamine-free DMEM supplemented with 10% dialyzed FBS (Gemini) and 20 mM D-glucose, 2 mM L-glutamine (100%), 0.4 mM L-glutamine (20%) or 0.2 mM L-glutamine (10%). All media were prepared by the Media Preparation Facility at MSKCC. Cells were verified as mycoplasma-free by the MycoAlert Mycoplasma Detection Kit (Lonza).
Lysates were generated by incubating cells or ground tumors in RIPA buffer (Millipore); […] of cleared lysate were analyzed by SDS-polyacrylamide gel electrophoresis (SDS-PAGE) as previously described^11. […] The following secondary antibodies were used: anti-rabbit horseradish peroxidase (HRP) (1:5,000; GE, NA934V), anti-mouse HRP (1:5,000; GE, NA931). Quantification of band intensities of collagen I relative to […] or vinculin in tumor allograft experiments was performed with Image Lab software v6.0 (Bio-Rad).

[2] = system: pyruvate carboxylase (PC); assay: Stable isotope tracing in NIH-3T3 cells (surrogate for PC activity); type: cell-based, mouse
Experimental: Cells were plated in six-well cell culture plates at a concentration aimed to reach 0.5-1×10^6 cells at the time of harvest. For quantification of relative metabolite abundance, cells were cultured with glutamine-free DMEM containing different concentrations of L-glutamine and supplemented with 10% dialyzed FBS and in some experiments were treated with TGFβ for 48 hours. For the [U-^13C]and [3,4-^13C]glucose tracing experiments, cells were cultured as above, and in the last 8 hours media was replaced with DMEM without D-glucose and L-glutamine supplemented with 2 mM or 0.2 mM L-glutamine and 10 mM [U-^13C]or [3,4-^13C]D-glucose (Cambridge Isotope Laboratories) and 10% dialyzed FBS. For the [U-^13C]and [1-^13C]lactate tracing experiments, cells were cultured in 2 or 0.2 mM L-glutamine, 10 or 1 mM D-glucose in the presence or absence of 10 mM sodium lactate, and in the last 8 hours media was replaced with DMEM without D-glucose and L-glutamine supplemented with 2 mM or 0.2 mM L-glutamine, 10 or 1 mM D-glucose, 10 mM [U-^13C]or [1-^13C]sodium lactate (Cambridge Isotope Laboratories) and 10% dialyzed FBS. For relative quantification of metabolites by gas chromatography-mass spectroscopy (GC-MS), cells were washed briefly with PBS, which was then fully aspirated and metabolism was quenched by immediately adding 1 mL of 80:20 methanol:water stored at −80° C. containing 20 μM deuterated 2-hydroxyglutarate (d5-2HG) as an internal standard. For stable isotope tracing experiments, metabolism was quenched without the PBS washing step by adding 1 mL of 80:20 methanol:water as above. After overnight incubation at −80° C., the resulting extracts were scraped on dry ice, transferred into a 1.5 mL centrifuge tube, and centrifuged at 20,000 g for 20 minutes at 4° C. The supernatants were collected in clean tubes and dried in a vacuum evaporator (Genevac EZ-2 Elite) for 2 hours.
For [U-^13C]glucose tracing into proteinogenic amino acids, cells were cultured in 10% Gln in the presence or absence of TGFβ for 48 hours. In the last 24 hours, the media including all treatments was replaced with DMEM without L-glutamine and D-glucose and supplemented with 0.2 mM L-glutamine and 10 mM [U-^13C]D-glucose (Cambridge Isotope Laboratories) and 10% dialyzed FBS. For [U-^13C]lactate tracing into ECM, confluent cells were cultured in 10% Gln in the presence of 10 mM [U-^13C]sodium lactate for 6 days. The media was replaced every other day. ECM was decellularized as described above. Cells and ECM were washed with PBS, and proteins were precipitated with methanol:chloroform:water (1:1:1). The interphase was washed with methanol, and the dried pellet was subjected to acid hydrolysis with 6 N hydrochloric acid (HCl) and incubation at 95° C. for 16 hours. Samples were cooled to room temperature and centrifuged at 20,000 g for 10 minutes. The cleared supernatant was dried in a vacuum evaporator (Genevac EZ-2 Elite) for 2 hours, and abundance of aspartate, glutamate/glutamine or hydroxyproline isotopologues was measured by GC-MS as described below.
GC-MS measurements were performed as described before^11. Ions used for quantification of metabolite levels were as follows: d5-2HG m/z 354; citrate m/z 465; alpha-ketoglutarate m/z 304; succinate m/z 247; fumarate m/z 245; malate m/z 335; aspartate m/z 232; hydroxyproline m/z 332; proline m/z 216; glutamate m/z 246; glutamine m/z 245; lactate m/z 219; pyruvate m/z 174. All peaks were manually inspected and verified relative to known spectra for each metabolite. Peak identification and integration were done with MassHunter software vB.09 (Agilent Technologies). For relative quantification of cell samples, integrated peak areas were normalized to the internal standard d5-2HG and to the packed cell volume of each sample. Absolute quantification of hydroxyproline in tumor acid hydrolysates was performed against a standard curve of commercial trans-4-hydroxy-L-proline (Sigma). […]

[3] = system: NIH-3T3 cells; conditions: proliferative fibroblasts, glutaminase inhibition; cited from earlier work
[4] = 10% Gln, TGFβ, 48 hours (FIG. 1G)

**Q.** Which “collagen I protein levels” value [1, 4] does the source give for O=C(Cc1cccc(OC(F)(F)F)c1)Nc1ccc(CCCCc2nnc(NC(=O)Cc3ccccn3)s2)nn1 [CB839] here?
**A.** only marginally increased

**Q.** What about the “rescue of GCN2 activation induced by TGFβ treatment” value [1, 4] of the same compound?
**A.** did not rescue

**Q.** What about the “collagen I levels” value ([1]; PC-deleted cells (PC sgRNA), CB839, 48 hours (FIG. 4H)) of the same compound?
**A.** reduced collagen I levels

**Q.** What about the “collagen I levels” value ([1]; full medium (100% Gln), CB839 1 μM alone, 48 hours (FIG. 4E)) of the same compound?
**A.** did not affect

**Q.** And the “m+1 labelling of aspartate and pyruvate carboxylation activity from [3,4-13C]Glc” value ([2]; 100% Gln, CB839, 48 hours (FIG. 4G))?
**A.** increased

**Q.** And the “m+3 labelling of TCA cycle intermediates and related NEAAs from [U-13C]Glc” value ([2]; CB839, 48 hours (FIG. 4F), indicative of anaplerosis via PC)?
**A.** increased

**Q.** What about the Gln-tRNA charging [3] of the same compound?
**A.** restored
